How the values were obtained:
NAD metabolome in PBMCs = test: Metabolomic analysis (LC-MS) in PBMCs; assay type: in vivo, human; details: oral NR 1000 mg/day, 30 days
Method: Biological material was collected at both visits, following a minimum 6-hour fasting and within 6 hours after study drug intake for visit 2. Sampling included whole blood, serum, peripheral blood mononuclear cells (PBMCs), cerebrospinal fluid (CSF) and muscle biopsy. Lumbar puncture was performed according to standard clinical procedures to collect 10 ml CSF. Needle biopsy of the vastus lateralis muscle was performed using a Bard Magnum biopsy gun (BD©, United States) and 12G×10 cm biopsy needles. Muscle biopsies were immediately dissected to remove any non-muscle tissue (e.g., fat or fascia) and snap-frozen in liquid nitrogen.
Standard substances of all the targeted compounds were used to prepare stock standard solutions and these solutions were mixed and diluted to make serially diluted standard solutions in an internal standard solution containing 11 isotope-labeled compounds (NAD-13C5, NADH-d5, nicotinamide riboside-d4, nicotinic-d4 acid, nicotinic acid-d4 riboside, AMP-15N5, ATP-13C10, nicotinamide-d4, 1-methylnicotinamide-d3, adenosine-13C5 and GTP-13C10) in a concentration range of 0.0002 to 20 nmol/mL. […] For metabolomic analyses in PBMCs, several aliquots of one sample were thawed on ice, centrifuged (10 min, 350×g, 4° C.), resuspended in ice-cold PBS and counted on a countess II cell counter. […]
For UPLC-MRM/MS, 10 μL aliquots of each standard solution and each sample solutions were injected to run LCMRM/MS either on a Waters Acquity UPLC coupled to a Sciex QTRAP 6500 Plus mass spectrometer with (−) ion detection or ESI or on an Agilent 1290 UHPLC system coupled to an Agilent 6495B QQQ mass spectrometer with (+) ion detection. […] Concentrations of individual metabolites detected in each sample were calculated by constructing linear-regression curves of individual metabolites with the analyte-to-internal standard peak area ratios (As/Ai) of standard solutions in each set of LC-MS runs and then by interpolating the calibration curves with the as/Ai values measured from injections of sample solutions in an appropriate concentration range for each compound. […]

[1] = test system: nigrostriatal degeneration or denervation (DAT loss); test: Follow-up DAT-scan of phase I participants (Example 4); assay type: in vivo, human
From the text: In the study of the present Example 4, […] of the participants from the study of Example 2 (9 receiving placebo and 11 receiving NR) were examined by a second DAT-scan 1-1.5 year after the completion of the study, for entry into the study of Example 3. […] FIG. 15 represents box plots showing the change (delta) of the DAT-scan tracer uptake in the posterior putamen between the second and first examination (delta=scan2−scan1). […] The data is normally distributed (Shapiro-Wilk normality test).

Structure (SMILES): NC(=O)c1ccc[n+]([C@@H]2O[C@H](CO)[C@@H](O)[C@H]2O)c1 [NR, nicotinamide riboside]
- Me-Nam level in PBMCs (NAD metabolome in PBMCs): increase
- NAAD level in PBMCs (NAD metabolome in PBMCs): increase
- acetyl-CoA, CoA, SAM and its metabolites, energy compounds such as ATP in PBMCs (NAD metabolome in PBMCs): no significant change
- progression of the DAT loss between first and second DAT-scan, NR vs placebo group ([1]; second scan 1-1.5 year after the study, posterior putamen, t-test p=0.35): no significant difference
- trend in progression of nigrostriatal denervation in NR group ([1]; smaller difference between the two examinations, p=0.35): non-significant trend for decreased progression

— patent publication US20240366648A1, “NAD-AUGMENTATION THERAPY FOR PARKINSON'S DISEASE” (Vestlandets Innovasjonsselskap AS (VIS), priority 2021, published 2024)
